One may read the IC50 as the concentration at which inhibition is half-maximal.

Bounds are passed on as bounds.

In this test the target is T1, N-terminally GST-tagged human full length recombinant Mps-1 kinase (Homo sapiens, UniProt P33981).
T1 construct: N-terminally GST-tagged human full length recombinant Mps-1 kinase; purchased Invitrogen, Karslruhe, Germany PV4071
T1 sequence (P33981 1-857): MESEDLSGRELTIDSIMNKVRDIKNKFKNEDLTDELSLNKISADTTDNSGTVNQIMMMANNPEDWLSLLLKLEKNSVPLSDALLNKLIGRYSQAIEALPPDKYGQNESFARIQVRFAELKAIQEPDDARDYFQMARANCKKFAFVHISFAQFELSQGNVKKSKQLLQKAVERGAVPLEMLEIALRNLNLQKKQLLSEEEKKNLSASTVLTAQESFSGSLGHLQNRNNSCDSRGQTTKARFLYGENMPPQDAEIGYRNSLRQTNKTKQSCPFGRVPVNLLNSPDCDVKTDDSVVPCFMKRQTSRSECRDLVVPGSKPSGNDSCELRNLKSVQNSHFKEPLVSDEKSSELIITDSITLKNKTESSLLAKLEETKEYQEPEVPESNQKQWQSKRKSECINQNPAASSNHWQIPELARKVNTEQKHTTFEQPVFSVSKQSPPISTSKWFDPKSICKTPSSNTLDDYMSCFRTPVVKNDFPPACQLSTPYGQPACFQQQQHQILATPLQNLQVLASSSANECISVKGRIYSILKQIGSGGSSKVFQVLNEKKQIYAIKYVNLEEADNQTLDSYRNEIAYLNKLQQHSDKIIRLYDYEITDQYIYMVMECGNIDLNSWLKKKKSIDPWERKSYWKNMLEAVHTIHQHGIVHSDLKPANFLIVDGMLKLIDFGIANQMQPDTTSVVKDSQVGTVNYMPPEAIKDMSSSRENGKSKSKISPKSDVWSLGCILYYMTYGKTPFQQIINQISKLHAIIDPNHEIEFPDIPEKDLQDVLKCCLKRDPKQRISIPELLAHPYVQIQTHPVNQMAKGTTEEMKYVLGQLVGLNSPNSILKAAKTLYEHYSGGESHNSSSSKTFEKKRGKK
Description: Mps-1 kinase assay (TR-FRET). The settings on record: Mps1 IC50 [nM], 10 μM ATP, 1 μM peptide substrate, 60 min at 22° C. The format is biochemical. As for the experimental part: The human kinase Mps-1 phosphorylates a biotinylated substrate peptide. Detection of the phosphorylated product is achieved by time-resolved fluorescence resonance energy transfer (TR-FRET) from Europium-labelled anti-phospho-Serine/Threonine antibody as donor to streptavidin labelled with cross-linked allophycocyanin (SA-XLent) as acceptor. Compounds are tested for their inhibition of the kinase activity.
N-terminally GST-tagged human full length recombinant Mps-1 kinase (purchased from Invitrogen, Karslruhe, Germany, cat. no PV4071) was used. As substrate for the kinase reaction a biotinylated peptide of the amino-acid sequence […] (C-terminus in amide form, purchased from Biosynthan GmbH, Berlin) was used.
The concentration of Mps-1 in the assay was adjusted to the activity of the enzyme lot and was chosen appropriate to have the assay in the linear range, typical enzyme concentrations were in the range of about 1 nM (final conc. in the 5 μl assay volume).
The resulting mixture was incubated 1 h at 22° C. to allow the binding of the phosphorylated peptide to the anti-phospho(Ser/Thr)-Europium-antibody. Subsequently the amount of phosphorylated substrate was evaluated by measurement of the resonance energy transfer from the Europium-labelled anti-phospho(Ser/Thr) antibody to the Streptavidin-XLent.
For orientation: In TR-FRET formats the signal depends on donor and acceptor labels being close together.
As to `FC(F)(F)CCNc1cc(-c2ccncc2)nn2c(-c3ccc(-c4cnc(C5CC5)[nH]4)cc3)cnc12` [Example 26, 3-[4-(2-Cyclopropyl-1H-imidazol-5-yl)phenyl]-6-(pyridin-4-yl)-N-(3,3,3-trifluoropropyl)imidazo[1,2-b]pyridazin-8-amine], the IC50 is 4.1 nM.

For `C/C=C(\C)c1cc(NCCC(F)(F)F)c2ncc(-c3ccc(-c4cnc(C5CC5)[nH]4)cc3)n2n1` [Example 27, 6-[(2E)-But-2-en-2-yl]-3-[4-(2-cyclopropyl-1H-imidazol-5-yl)phenyl]-N-(3,3,3-trifluoropropyl)imidazo[1,2-b]pyridazin-8-amine], the IC50 worked out at 33.2 nM.

Regarding `Cc1cc(-c2cnc3c(NCCC(F)(F)F)cc(-c4ccc(F)cc4)nn23)ccc1C(=O)NC1CC1` [Example 28, N-cyclopropyl-4-{6-(4-fluorophenyl)-8-[(3,3,3-trifluoropropyl)amino]imidazo[1,2-b]pyridazin-3-yl}-2-methylbenzamide], the IC50 is less than 1 nM.

For `Cc1cc(-c2cnc3c(NC[C@@H]4CCCO4)cc(-c4ccncc4)nn23)ccc1C(=O)NC1CC1` [Example 31, N-cyclopropyl-2-methyl-4-[6-(pyridin-4-yl)-8-{[(2S)-tetrahydrofuran-2-ylmethyl]amino}imidazo[1,2-b]pyridazin-3-yl]benzamide], the IC50 came to 1.1 nM.

`CC(C)(O)CNc1cc(-c2ccc(F)cc2)nn2c(-c3ccc(C(=S)NC4CC4)cc3)cnc12` [Example 32, N-cyclopropyl-4-{6-(4-fluorophenyl)-8-[(2-hydroxy-2-methylpropyl)amino]imidazo[1,2-b]pyridazin-3-yl}benzenecarbothioamide]: the IC50 is 4.3 nM.

Turning to `Cc1cc(-c2cnc3c(NC[C@H]4CCCO4)cc(-c4ccnn4C)nn23)ccc1C(=O)NC1CC1` [Example 33, N-cyclopropyl-2-methyl-4-[6-(1-methyl-1H-pyrazol-5-yl)-8-{[(2R)-tetrahydrofuran-2-ylmethyl]amino}imidazo[1,2-b]pyridazin-3-yl]benzamide], the concentration for half-maximal inhibition (IC50) worked out at 1.5 nM.

Regarding `Cc1cc(-c2cnc3c(NC[C@@H]4CCCO4)cc(-c4ccnn4C)nn23)ccc1C(=O)NC1CC1` [Example 34, N-cyclopropyl-2-methyl-4-[6-(1-methyl-1H-pyrazol-5-yl)-8-{[(2S)-tetrahydrofuran-2-ylmethyl]amino}imidazo[1,2-b]pyridazin-3-yl]benzamide], the IC50 is 2.4 nM.

For the compound `Cc1cc(-c2cnc3c(NC[C@H]4CCCO4)cc(-c4ccncc4)nn23)ccc1C(=O)NC1CC1` [Example 35, N-cyclopropyl-2-methyl-4-[6-(pyridin-4-yl)-8-{[(2R)-tetrahydrofuran-2-ylmethyl]amino}imidazo[1,2-b]pyridazin-3-yl]benzamide], the IC50 turned out to be 2.5 nM.

For `COC(C)(C)CNc1cc(-c2ccccc2CO)nn2c(-c3ccc(C(=O)NC4CC4)c(C)c3)cnc12` [Example 38, N-cyclopropyl-4-{6-[2-(hydroxymethyl)phenyl]-8-[(2-methoxy-2-methylpropyl)amino]imidazo[1,2-b]pyridazin-3-yl}-2-methylbenzamide], the IC50 came to 10.3 nM.

With `COC(C)(C)CNc1cc(-c2ccnn2C)nn2c(-c3ccc(C(=O)NC4CC4)c(C)c3)cnc12` [Example 39, N-cyclopropyl-4-{8-[(2-methoxy-2-methylpropyl)amino]-6-(1-methyl-1H-pyrazol-5-yl)imidazo[1,2-b]pyridazin-3-yl}-2-methylbenzamide], the IC50 was 3.7 nM.

With `C=Cc1cc(NCC(C)(C)O)c2ncc(-c3ccc(C(=O)NC4CC4)c(C)c3)n2n1` [Example 40, N-cyclopropyl-4-{8-[(2-hydroxy-2-methylpropyl)amino]-6-vinylimidazo[1,2-b]pyridazin-3-yl}-2-methylbenzamide], the IC50 was found to be 111 nM.

Regarding `C=Cc1cc(NCCC(F)(F)F)c2ncc(-c3ccc(C(=O)NC4CC4)c(C)c3)n2n1` [Example 41, N-cyclopropyl-2-methyl-4-{8-[(3,3,3-trifluoropropyl)amino]-6-vinylimidazo[1,2-b]pyridazin-3-yl}benzamide], the IC50 turned out to be 7.1 nM.

In the case of `Cc1cc(-c2cnc3c(NCC(C)(C)O)cc(C4=CCNCC4)nn23)ccc1C(=O)NC1CC1` [Example 42, N-cyclopropyl-4-{8-[(2-hydroxy-2-methylpropyl)amino]-6-(1,2,3,6-tetrahydropyridin-4-yl)imidazo[1,2-b]pyridazin-3-yl}-2-methylbenzamide], the IC50 stood at 7.8 nM.

For `CC(C)(O)CNc1cc(C2=CCCCC2)nn2c(-c3ccc(C(=S)NC4CC4)cc3)cnc12` [Example 43, 4-{6-(Cyclohex-1-en-1-yl)-8-[(2-hydroxy-2-methylpropyl)amino]imidazo[1,2-b]pyridazin-3-yl}-N-cyclopropylbenzenecarbothioamide], the IC50 is 21.1 nM.

As to `OCc1ccccc1-c1cc(NCCC(F)(F)F)c2ncc(-c3ccc(C(=S)NC4CC4)cc3)n2n1` [Example 44, N-cyclopropyl-4-{6-[2-(hydroxymethyl)phenyl]-8-[(3,3,3-trifluoropropyl)amino]imidazo[1,2-b]pyridazin-3-yl}benzenecarbothioamide], the half-inhibitory concentration (IC50) worked out at 2.6 nM.

Take `Cn1nccc1-c1cc(NCCC(F)(F)F)c2ncc(-c3ccc(C(=S)NC4CC4)cc3)n2n1` [Example 45, N-cyclopropyl-4-{6-(1-methyl-1H-pyrazol-5-yl)-8-[(3,3,3-trifluoropropyl)amino]imidazo[1,2-b]pyridazin-3-yl}benzenecarbothioamide]: the IC50 worked out at 1.1 nM.

As to `OCc1cccc(-c2cc(NCCC(F)(F)F)c3ncc(-c4ccc(C(=S)NC5CC5)cc4)n3n2)c1` [Example 46, N-cyclopropyl-4-{6-[3-(hydroxymethyl)phenyl]-8-[(3,3,3-trifluoropropyl)amino]imidazo[1,2-b]pyridazin-3-yl}benzenecarbothioamide], the concentration for half-maximal inhibition (IC50) was determined as 1.1 nM.

With `CC(C)(O)CNc1cc(-c2ccncc2)nn2c(-c3ccc(C(=S)NC4CC4)cc3)cnc12` [Example 47, N-cyclopropyl-4-{8-[(2-hydroxy-2-methylpropyl)amino]-6-(pyridin-4-yl)imidazo[1,2-b]pyridazin-3-yl}benzenecarbothioamide], the IC50 turned out to be 2 nM.

As for `Cc1cc(-c2cnc3c(NCCC(F)(F)F)cc(C4CC4)nn23)ccc1C(=O)NC1CC1` [Example 48, N-cyclopropyl-4-{6-cyclopropyl-8-[(3,3,3-trifluoropropyl)amino]imidazo[1,2-b]pyridazin-3-yl}-2-methylbenzamide], the IC50 was determined as 1.4 nM.

For `COc1cc(C(=O)NC2CC2)ccc1-c1cnc2c(NCC(C)(C)O)cc(-c3ccc(F)cc3)nn12` [Example 49, N-cyclopropyl-4-{6-(4-fluorophenyl)-8-[(2-hydroxy-2-methylpropyl)amino]imidazo[1,2-b]pyridazin-3-yl}-3-methoxybenzamide], the IC50 amounted to 11.9 nM.

In the case of `COc1cc(C(=O)NC2CC2)ccc1-c1cnc2c(NCC(C)(C)O)cc(-c3ccnn3C)nn12` [Example 50, N-cyclopropyl-4-{8-[(2-hydroxy-2-methylpropyl)amino]-6-(1-methyl-1H-pyrazol-5-yl)imidazo[1,2-b]pyridazin-3-yl}-3-methoxybenzamide], the IC50 amounted to 84.8 nM.

Turning to `COc1cc(C(=O)NC2CC2)ccc1-c1cnc2c(NCC(C)(C)O)cc(Sc3ccccc3)nn12` [Example 51A, N-cyclopropyl-4-{8-[(2-hydroxy-2-methylpropyl)amino]-6-(phenylsulfanyl)imidazo[1,2-b]pyridazin-3-yl}-3-methoxybenzamide], the IC50 was determined as 58 nM.

Take `CC(C)(O)CNc1cc(Sc2ccccc2)nn2c(-c3ccc(C(=O)NC4CC4)cc3O)cnc12` [Example 51B, N-cyclopropyl-3-hydroxy-4-{8-[(2-hydroxy-2-methylpropyl)amino]-6-(phenylsulfanyl)imidazo[1,2-b]pyridazin-3-yl}benzamide]: the IC50 was determined as 1.2 nM.

Take `COc1cc(C(=O)NC2CC2)ccc1-c1cnc2c(NCCC(F)(F)F)cc(-c3ccc(F)cc3)nn12` [Example 52, N-cyclopropyl-4-{6-(4-fluorophenyl)-8-[(3,3,3-trifluoropropyl)amino]imidazo[1,2-b]pyridazin-3-yl}-3-methoxybenzamide]: the IC50 was determined as 3.2 nM.

The values are drawn from US9255100B2 (BAYER INTELLECTUAL PROPERTY GMBH, priority 2010, dated 2016).
